In patent US12419305B2, “Antimicrobial compositions” (Firmenich SA, priority 2018, dated 2025):
Like-named read-outs stand apart in the source and are kept apart here.

Assays:
C. xerosis ATCC 373 = experiment: BCT test (bacterial contact time), 120 s, log reduction / effect fraction; CI by Compusyn; assay type: cell-based; conditions: Corynebacterium xerosis, ATCC373, 2 min
In short: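 C. xerosis cells grown in BHI-TW80 at 37 °C to OD600 1.6 were exposed to ethanolic perfume compositions for 120 s. Viable counts (log CFU) came from serial dilution and OD600 growth after 37 °C incubation, giving log reduction versus ethanol control. CI was computed from concentrations and effect fractions, with <0.9 taken as synergy.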

S. aureus ATCC 6538 = experiment: BCT test (bacterial contact time), 60 s, log reduction / effect fraction; CI by Compusyn; assay type: cell-based, Staphylococcus aureus; conditions: Staphylococcus aureus, ATCC6538, 1 min, in 25% EtOH
In short: (§1)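 Combination index comes from dose and effect fraction of each blend and its single components, with values under 0.9 taken as synergistic and above 1.0 as antagonistic. Effect reflects log reduction in viable count after short contact of ~1×10^8 bacteria/mL with ethanolic test solutions.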

S. haemolyticus 114126 = experiment: BCT test (bacterial contact time), 120 s, log reduction / effect fraction; CI by Compusyn; assay type: cell-based; conditions: Staphylococcus haemolyticus, 114126, 2 min
In short: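 S. haemolyticus 114126 (skin isolate), grown to OD600 1-2 in BHI-TW80 and resuspended at 1-5×10^8 CFU/mL, was mixed 1:1 with ethanolic perfume compositions or ethanol alone for 45, 60 or 120 s. Viable counts came from serial-dilution regrowth (37 °C, turbidity OD600), giving log reduction versus ethanol control; CI was computed from concentration–effect fraction pairs.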

[1] = tested on: Pseudomonas aeruginosa ATCC 15442; experiment: BCT test (bacterial contact time), 60 s, log reduction / effect fraction; CI by Compusyn; assay type: cell-based; conditions: Pseudomonas aeruginosa, ATCC15442, 1 min, BCT 60 s, in 25% EtOH
In short: as §1

[2] = tested on: Salmonella enterica ATCC 10708; experiment: as above; assay type: cell-based; conditions: Salmonella enterica, ATCC10708, 1 min
In short: as §1

[3] = dose 0.1% w/v, contact 120 s, 25% EtOH
[4] = dose 0.125% w/v, contact 120 s, 25% EtOH
[5] = dose 0.15% w/v, contact 120 s, 25% EtOH

SMILES: CC(C)=CCC/C(C)=C/CO [Geraniol Pur]
- log reduction at 0.1 % strength (C. xerosis ATCC 373; [3]): 0.9
- log reduction at 0.125 % strength (C. xerosis ATCC 373; [4]): 3.6
- log reduction at 0.15 % strength (C. xerosis ATCC 373; [5]): 4.8
- log reduction at 0.175 % strength (C. xerosis ATCC 373; dose 0.175% w/v, contact 120 s, 25% EtOH): 6.8
- log reduction at 0.2 % strength (C. xerosis ATCC 373; dose 0.2% w/v, contact 120 s, 25% EtOH, read-out: Log reduction): 7
- log reduction at 0.05 % strength (S. aureus ATCC 6538; dose 0.050 % w/v, 60 s): 0.2
- log reduction at 0.06 % strength (S. aureus ATCC 6538; dose 0.060 % w/v, 60 s): 0.4
- log reduction at 0.07 % strength (S. aureus ATCC 6538; dose 0.070 % w/v, 60 s): 1.5
- log reduction at 0.08 % strength (S. aureus ATCC 6538; dose 0.080 % w/v, 60 s): 4
- log reduction at 0.1 % strength (S. aureus ATCC 6538; dose 0.100 % w/v, 60 s): 7.3
- log reduction at 0.05 % strength (S. haemolyticus 114126; dose 0.05% w/v, contact 120 s, 25% EtOH): -0.2
- log reduction at 0.1 % strength (S. haemolyticus 114126; [3]): 2.7
- log reduction at 0.125 % strength (S. haemolyticus 114126; [4]): 5.3
- log reduction at 0.15 % strength (S. haemolyticus 114126; [5]): 7.1
- log reduction at 0.03 % strength ([1]; Dose 0.03 % w/v): 0.2
- log reduction at 0.04 % strength ([1]; Dose 0.040 % w/v): 1.4
- log reduction at 0.05 % strength ([1]; Dose 0.05 % w/v): 3.9
- log reduction at 0.06 % strength ([1]; Dose 0.06 % w/v): 5.9
- log reduction at 0.08 % strength ([1]; Dose 0.08 % w/v): 7.5
- log reduction at 0.025 % strength ([2]; Dose 0.025 % w/v, BCT 60 s, in 25% EtOH): 0.2
- log reduction at 0.03 % strength ([2]; Dose 0.03 % w/v, BCT 60 s, in 25% EtOH): 0.2
- log reduction at 0.04 % strength ([2]; Dose 0.04 % w/v, BCT 60 s, in 25% EtOH): 2.4
- log reduction at 0.045 % strength ([2]; Dose 0.045 % w/v, BCT 60 s, in 25% EtOH): 3.6
- log reduction at 0.05 % strength ([2]; Dose 0.05 % w/v, BCT 60 s, in 25% EtOH, read-out: Log reduction): 4.9

SMILES: CC(C=O)Cc1ccc2c(c1)OCO2 (stereo not shown) [Heliopropanal, 3-(1,3-Benzodioxol-5-yl)-2-methylpropanal]
- log reduction at 0.2 % strength (C. xerosis ATCC 373): 0.1
- log reduction at 0.25 % strength (C. xerosis ATCC 373): 0.3
- log reduction at 0.3 % strength (C. xerosis ATCC 373): 1.4
- log reduction at 0.35 % strength (C. xerosis ATCC 373): 1.8
- log reduction at 0.4 % strength (C. xerosis ATCC 373): 2.2
- log reduction at 0.15 % strength (S. aureus ATCC 6538; Dose 0.15 % w/v, BCT 60 s): 0.4
- log reduction at 0.175 % strength (S. aureus ATCC 6538; Dose 0.175 % w/v, BCT 60 s): 0.4
- log reduction at 0.2 % strength (S. aureus ATCC 6538; Dose 0.200 % w/v, BCT 60 s): 1.3
- log reduction at 0.225 % strength (S. aureus ATCC 6538; Dose 0.225 % w/v, BCT 60 s): 3.5
- log reduction at 0.25 % strength (S. aureus ATCC 6538; Dose 0.25 % w/v, BCT 60 s): 7.3
- log reduction at 0.15 % strength (S. aureus ATCC 6538; dose 0.150 % w/v, 60 s): 0.4
- log reduction at 0.2 % strength (S. aureus ATCC 6538; dose 0.200 % w/v, 60 s): 1.2
- log reduction at 0.225 % strength (S. aureus ATCC 6538; dose 0.225 % w/v, 60 s): 4.2
- log reduction at 0.25 % strength (S. aureus ATCC 6538; dose 0.250 % w/v, 60 s): 7
- log reduction at 0.3 % strength (S. aureus ATCC 6538; dose 0.300 % w/v, 60 s): 7.3
- log reduction at 0.175 % strength (S. haemolyticus 114126): 0.1
- log reduction at 0.25 % strength (S. haemolyticus 114126): 0.3
- log reduction at 0.3 % strength (S. haemolyticus 114126): 1.5
- log reduction at 0.4 % strength (S. haemolyticus 114126): 3.2
- log reduction at 0.45 % strength (S. haemolyticus 114126): 5.2
- log reduction at 0.175 % strength ([1]; Dose 0.175 % w/v): 4.8
- log reduction at 0.2 % strength ([1]; Dose 0.2 % w/v): 7.2
- log reduction at 0.25 % strength ([1]; Dose 0.25 % w/v): 7.4
- log reduction at 0.05 % strength [2]: 0
- log reduction at 0.1 % strength [2]: 0.8
- log reduction at 0.12 % strength [2]: 2.9
- log reduction at 0.13 % strength [2]: 3.9
- log reduction at 0.14 % strength [2]: 5.5
